One assay concerns the target T1, spFolD (Streptococcus pneumoniae serotype 4, UniProt Q97RI9).
T1 construct: His-tag (TEV-cleavable, vector pHis-TEV); made in house; host or cells: E. coli BL21 (DE3)
The assay is described as follows: spFolD cyclohydrolase (CYH) enzyme assay. Type of assay: biochemical, S. pneumoniae. The method, then:
(6R,S)-5,10-Methylene-5,6,7,8-tetrahydrofolic acid ((6R,S)-5,10-CH2-THF) calcium salt and (6R,S)-5,10-Methenyl-5,6,7,8-tetrahydrofolic acid ((6R,S)-5,10-CH=THF) chloride were purchased from Schircks Laboratories (Bauma, Switzerland) and used as substrates for FolD dehydrogenase and cyclohydrolase enzyme assays, respectively. Only the R-isomer, which accounts for 50% of (6R,S)-5,10-CH2-THF and (6R,S)-5,10-CH=THF, respectively, is used by the enzyme. (6R,S)-5,10-CH2-THF was dissolved in N2-spargeled basic buffer (50 mM Tris-HCl (pH 8.0), 100 mM β-mercaptoethanol) as described by Varshney et al.[25]. (6R,S)-5,10-CH=THF was dissolved in DMSO as a 100 mM stock solution.
Because FolD is a bifunctional enzyme, dehydrogenase and cyclohydrolase activities were determined for FolD enzyme kinetics, respectively. The dehydrogenase activity of FolD was assayed for its substrate 5,10-CH2-THF and cofactor NADP^+ (in the case of MTHFD2, NAD^+ was used as the cofactor) based on monitoring the formation of 5,10-CH=THF, while the cyclohydrolase activity of FolD was determined for its substrate 5,10-CH=THF by monitoring the hydrolysis of […]. The enzyme kinetics for the dehydrogenase activity of all FolDs except hsMTHFD1_DC were determined at 30 °C in 50 mM Tris-HCl (pH 7.5), 30 mM β-mercaptoethanol. The hsMTHFD1_DC dehydrogenase activity was measured in 25 mM MOPS (pH 7.3), 30 mM β-mercaptoethanol at 30 °C. […] To monitor the formation of 5,10-CH=THF, the absorbance of the reaction mixture was monitored at 350 nm in micro UV cuvettes (BRAND, Essex, Connecticut, USA). The concentration of 5,10-CH=THF produced in the reaction was determined using an extinction co-efficient of 0.0249 μM^−1 cm^−1. […] The consumption of 5,10-CH=THF was measured by recording the absorbance of the reactions at 355 nm using the TECAN Infinite 200 PRO equipped with a monochromator. […] The inhibition constants (K i) of carolacton on FolD were determined by measuring the apparent K m when adding certain amounts of carolacton to the enzyme reactions. […]

A further assay concerns the target T2, ecFolD (Escherichia coli, UniProt P24186).
T2 construct: His-tag (TEV-cleavable, vector pHis-TEV); made in house; host or cells: E. coli BL21 (DE3)
Briefly: SPR binding to ecFolD. Details: species or system E. coli. The method, then: (§1) All surface plasmon resonance (SPR) experiments described in this study were performed on a Biacore X100 system. Different FolDs with or without His-tag were coupled on CM5 sensor chips (GE Healthcare) by the amine coupling method using a kit from GE Healthcare Life Sciences (Freiburg, Germany). A pH scouting process was performed before protein immobilization to test the most appropriate buffer and the protein concentration for protein coupling. Finally, 20 μg/mL of ecFolD in 10 mM maleate buffer (pH 6.8), 30 μg/mL of ecFolD Q98H in 10 mM maleate buffer (pH 6.3), 40 μg/mL of ecFolD K54N in 10 mM maleate buffer (pH 5.8), 20 μg/mL of spFolD in 10 mM maleate buffer (pH 6.0) and 15 μg/mL of MTHFD2 (His-tag cleaved) in 10 mM maleate buffer (pH 6.8) were used for coupling. In the protein immobilization procedure, the contact time was calculated based on the pH scouting results to achieve ~3000–5000 relative resonance units (RU). The buffer used in the SPR assays was 1× HBS-P buffer (10 mM HEPES pH 7.4, 150 mM NaCl, 0.05% Tween 20). The 1 mM stock solution of carolacton was prepared in 1× HBS-P buffer and diluted to different concentration ranges by two-fold serial dilution. In the SPR assay, the association time was 180 s and the dissociation time was 600 s. Data analysis was performed using the Biacore evaluation software. […]
On the technique in general: SPR reads the build-up and loss of mass on a sensor chip optically.

The target in a further assay is T3, ecFolD Q98H (Escherichia coli, UniProt P24186, Q98H).
T3 construct: His-tag (TEV-cleavable, vector pHis-TEV); made in house; host or cells: E. coli BL21 (DE3)
Briefly: SPR binding to ecFolD Q98H. On the set-up: species or system E. coli. The method, then:
as §1

The term IC50 denotes the concentration that gives 50% inhibition. The term IC80 denotes the point of the concentration-response curve where the effect stands at 80%. A word on the Ki: it is the dissociation constant of the complex between target and ligand, obtained from inhibition or displacement. The term Kd denotes a measure of binding affinity in units of concentration. High values mean lower affinity, low ones higher affinity. Usually koff stands for a measure of how fast the partners let go of each other. Low values mean a long-lived complex, high ones a short-lived complex.

T1 sequence (Q97RI9 whole entry): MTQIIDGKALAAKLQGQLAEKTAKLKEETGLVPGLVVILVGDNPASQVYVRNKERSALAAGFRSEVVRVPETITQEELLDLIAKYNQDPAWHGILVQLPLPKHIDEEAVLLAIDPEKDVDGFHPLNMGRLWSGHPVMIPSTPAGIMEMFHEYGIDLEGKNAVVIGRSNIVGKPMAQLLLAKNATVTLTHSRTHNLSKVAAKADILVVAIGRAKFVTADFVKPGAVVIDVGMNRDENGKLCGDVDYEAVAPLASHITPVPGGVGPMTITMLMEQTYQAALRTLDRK

In the case of `CO[C@H](CC(=O)O)[C@@H](C)C(=O)[C@H](C)/C=C(\C)[C@H]1OC(=O)[C@H](O)[C@H](O)/C=C/[C@H](C)CCC[C@@H]1C` [carolacton], the IC50 at spFolD (5 nM enzyme, read-out: IC50, carolacton inhibition on CYH activity) is 0.0381 µM. Also, the IC80 on spFolD (5 nM enzyme, read-out: IC80, carolacton inhibition on CYH activity) came to 0.101 µM. Also, the Ki at spFolD (vs 5,10-CH=THF, read-out: Ki (5,10-CH=THF), carolacton inhibition on CYH activity) was 0.0381 µM. On ecFolD, the Kd turned out to be 0.01 µM and the koff was determined as 0.01 s⁻¹. On ecFolD Q98H, this compound came in with a Kd of 20 µM and a koff of 0.608 s⁻¹.

The values above are taken from PMC5688156, “The natural product carolacton inhibits folate-dependent C1 metabolism by targeting FolD/MTHFD” (Nature Communications, 2017).
